# Tests used:
# [1] = test system: CHO cells (subclone DG44); experiment: Antibody production in CHO cells with keto leucine instead of L-leucine; assay type: cell-based, Chinese hamster; settings: keto leucine as calcium salt, reference normalized to 1.0
# Description: (§1) Antibody producing chinese hamster ovary (CHO) cells (subclone DG44) were cultivated in shake flasks (125 ml or 250 ml with a culture volume of 50 ml or 100 ml respectively) in TC42/CHOMACS CD culture medium (TeutoCell AG) containing 8 mM L-glutamine. The culture medium was prepared by mixing two solutions. The first contained the conventional medium formulation (containing L-leucine and calcium chloride). In the second, the amino acid L-leucine in the culture medium was substituted by keto leucine (178 mg/l) as calcium salt in equimolar quantities. These solutions were mixed in different ratios. The growth of cells cultivated in the different mixtures was compared to cells cultivated in the conventional culture medium.
# The concentration of antibody produced by the cells cultivated in the reference culture medium containing L-leucine (Reference) were normalized to 1.0.
# [2] = test system: CHO cells (subclone DG44); experiment: Growth of CHO cells in medium with keto leucine instead of L-leucine; assay type: cell-based, Chinese hamster; settings: keto leucine as calcium salt instead of L-leucine, up to 178 mg/l, third passage
# Description: as §1
# A corresponds to cells cultivated in a culture medium containing 178 mg/L of keto leucine, B to a mixture containing 30% (v/v) of the keto leucine solution, C to a mixture containing 5% (v/v) of the keto leucine solution and a reference containing only L-leucine.
compound,measurement,setting,value
"CC(C)CC(=O)C(=O)O [keto leucine, alpha-keto isocaproate]",antibody production with keto leucine instead of L-leucine,[1],L-leucine can be substituted
same,viable cell density versus reference medium with L-leucine,[2],slightly reduced

# Reference: patent publication US20210355435A1, “CULTURE MEDIUM COMPRISING KETO ACIDS” (Evonik Operations GmbH, priority 2018, published 2021)
